The text below walks through data of article PMC2099433, “The binding site for neohesperidin dihydrochalcone at the human sweet taste receptor” (BMC Structural Biology, 2007).

Numbering of substitutions follows the chain as printed. Where a SMILES comes first, the peptide text is derived from it.

For assay [1], the target named is T1, hTAS1R2 + hTAS1R3 L798I^7.36 (Homo sapiens, UniProt Q7RTX0+Q8TE23, L798I).
T1 construct: expressed in transfected cells; host or cells: HEK293T cells stably expressing G16Gust44
T1 sequence (Q8TE23 20-839): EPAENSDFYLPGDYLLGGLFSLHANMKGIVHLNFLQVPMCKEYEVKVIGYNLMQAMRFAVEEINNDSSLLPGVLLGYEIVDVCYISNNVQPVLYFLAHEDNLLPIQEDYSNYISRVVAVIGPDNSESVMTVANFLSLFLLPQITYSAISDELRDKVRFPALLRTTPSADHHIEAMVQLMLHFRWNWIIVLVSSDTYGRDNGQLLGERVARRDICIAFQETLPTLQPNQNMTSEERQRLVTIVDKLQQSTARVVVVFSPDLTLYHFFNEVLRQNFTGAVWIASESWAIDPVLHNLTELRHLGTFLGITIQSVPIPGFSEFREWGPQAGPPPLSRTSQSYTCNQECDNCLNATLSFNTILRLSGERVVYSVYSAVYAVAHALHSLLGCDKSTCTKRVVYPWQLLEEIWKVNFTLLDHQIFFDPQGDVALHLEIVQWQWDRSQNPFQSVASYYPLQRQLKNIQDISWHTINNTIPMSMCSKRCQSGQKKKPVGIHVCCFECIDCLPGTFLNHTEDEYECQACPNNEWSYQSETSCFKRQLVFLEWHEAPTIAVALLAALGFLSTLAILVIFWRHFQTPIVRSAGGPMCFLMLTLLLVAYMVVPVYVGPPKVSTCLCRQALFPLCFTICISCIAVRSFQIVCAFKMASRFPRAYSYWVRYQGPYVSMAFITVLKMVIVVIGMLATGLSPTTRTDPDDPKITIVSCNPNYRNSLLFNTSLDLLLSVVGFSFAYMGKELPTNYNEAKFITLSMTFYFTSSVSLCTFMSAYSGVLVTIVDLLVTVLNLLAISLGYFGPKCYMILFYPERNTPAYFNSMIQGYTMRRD
T1 sequence (Q7RTX0 21-852 L798I): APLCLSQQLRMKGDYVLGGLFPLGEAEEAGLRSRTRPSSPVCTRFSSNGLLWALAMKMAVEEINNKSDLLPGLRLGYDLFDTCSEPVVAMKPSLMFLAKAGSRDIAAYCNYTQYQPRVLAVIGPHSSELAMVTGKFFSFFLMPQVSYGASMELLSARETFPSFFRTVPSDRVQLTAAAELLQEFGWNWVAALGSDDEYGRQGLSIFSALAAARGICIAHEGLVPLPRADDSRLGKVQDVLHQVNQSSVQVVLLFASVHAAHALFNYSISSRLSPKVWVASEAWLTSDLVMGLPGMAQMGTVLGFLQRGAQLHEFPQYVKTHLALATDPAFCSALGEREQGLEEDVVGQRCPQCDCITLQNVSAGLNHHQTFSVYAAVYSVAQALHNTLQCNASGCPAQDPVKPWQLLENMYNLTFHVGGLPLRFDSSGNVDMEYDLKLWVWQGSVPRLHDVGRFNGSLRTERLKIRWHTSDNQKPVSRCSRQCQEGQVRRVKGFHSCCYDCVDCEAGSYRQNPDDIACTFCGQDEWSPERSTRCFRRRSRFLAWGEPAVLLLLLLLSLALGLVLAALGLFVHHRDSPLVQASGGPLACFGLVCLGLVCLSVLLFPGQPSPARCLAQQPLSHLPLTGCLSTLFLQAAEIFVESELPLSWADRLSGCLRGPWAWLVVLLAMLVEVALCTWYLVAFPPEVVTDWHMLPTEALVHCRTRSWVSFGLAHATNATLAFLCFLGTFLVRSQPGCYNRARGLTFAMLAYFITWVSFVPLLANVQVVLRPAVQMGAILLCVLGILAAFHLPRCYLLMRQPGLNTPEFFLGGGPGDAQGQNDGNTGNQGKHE
As to the kind of experiment: Calcium response (FLIPR), hTAS1R3 mutant coexpressed with hTAS1R2. Format: cell-based. Conditions: variant L798I^7.36; for Emax: read-out: maximal signal (% of wt). The essentials:
(§1)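 HEK293T cells stably expressing chimeric G16Gust44 were transiently transfected with C-terminally HSV-tagged hTAS1R2 and mutant hTAS1R3, then loaded 24 h later with Fluo4-AM for 1 h. Calcium mobilization after sweet-tastant application was read by FLIPR, mock-corrected and expressed as ΔF/F.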

The target of assay [2] is T2, hTAS1R2 + hTAS1R3 L800F^7.38 (Homo sapiens, UniProt Q7RTX0+Q8TE23, L800F).
T2 construct: expressed in transfected cells; host or cells: HEK293T cells stably expressing G16Gust44
T2 sequence (Q7RTX0 21-852 L800F): T1 sequence (Q7RTX0 21-852 L798I) with I778L, L780F
T2 sequence (Q8TE23 20-839): T1 sequence (Q8TE23 20-839)
The description is as above. To be noted: variant L800F^7.38; for Emax: read-out: maximal signal (% of wt). It counts as cell-based. Summed up:
as §1

The term EC50 denotes the concentration at which the effect is half-maximal. Take `COc1ccc(CCC(=O)c2c(O)cc(O[C@@H]3O[C@H](CO)[C@@H](O)[C@H](O)[C@H]3O[C@@H]3O[C@@H](C)[C@H](O)[C@@H](O)[C@H]3O)cc2O)cc1O` [NHDC, neohesperidin dihydrochalcone]: in assay [1], the concentration giving a half-maximal response (EC50) is 200 ± 200 µM and the Emax was 66 ± 26%. Also, in assay [2], the EC50 was determined as 200 ± 100 µM and the Emax worked out at 91 ± 70%.
For `COC(=O)[C@H](Cc1ccccc1)NC(=O)[C@@H](N)CC(=O)O` [aspartame] (HELM PEPTIDE1{D.F.[CO[*:1]]}$$$$V2.0), in that order: 900 ± 400 µM, 81 ± 5%, 1200 ± 300 µM and 90 ± 1%.
